Active and inactive are the calls of the source. The calls are words filed in the database; no cut-off is given here.

Assay [1] deals with MCF7. In words: Antiproliferative activity against estrogen receptor positive human MCF7 cells assessed as inhibition of cell viability by MTT assay. Format: functional, cell-based. In general terms: Formazan colour is commonly taken as a measure of viable cells.
The subject of assay [2] is MDA-MB-231. In words: Antiproliferative activity against estrogen receptor negative human MDA-MB-231 cells assessed as inhibition of cell viability by MTT assay. Format: functional, cell-based.
Assay [3] relates to MDA-MB-231. The assay is described as follows: Induction of cell cycle arrest in estrogen receptor negative human MDA-MB-231 cells assessed as accumulation of cells at G0/G1 phase at 9.2 uM incubated for 24 hrs (reference value: 61.44%). Format: functional.
The test system of assay [4] is MCF7. The assay is described as follows: Induction of cell cycle arrest in estrogen receptor positive human MCF7 cells assessed as accumulation of cells at G2/M phase at 13.4 uM incubated for 24 hrs (reference value: 19.32%). Format: functional.
In assay [5] the test system is MCF7. In words: Induction of cell cycle arrest in estrogen receptor positive human MCF7 cells assessed as accumulation of cells at S phase at 13.4 uM incubated for 24 hrs (reference value: 20.84%). Format: functional.
Assay [6] deals with MCF7. In words: Induction of cell cycle arrest in estrogen receptor positive human MCF7 cells assessed as accumulation of cells at G0/G1 phase at 13.4 uM incubated for 24 hrs (reference value: 60.49%). Format: functional.
Assay [7] deals with MDA-MB-231. The assay is described as follows: Induction of apoptosis in human MDA-MB-231 cells assessed as inhibition of PARP level. Format: functional, cell-based.
Assay [8] has as its system MDA-MB-231. In words: Induction of cell cycle arrest in estrogen receptor […] human MDA-MB-231 cells assessed as accumulation of cells at G2/M phase at 9.2 uM incubated for 24 hrs (reference value: 13.64%). Format: functional.
Assay [9] concerns MDA-MB-231. In words: Induction of cell cycle arrest in estrogen receptor […] human MDA-MB-231 cells assessed as accumulation of cells at S phase at 9.2 uM incubated for 24 hrs (reference value: 25.49%). Format: functional.
Assay [10] deals with MCF7. In words: Induction of apoptosis in human MCF7 cells assessed as inhibition of PARP level. Format: functional, cell-based.
In assay [11] the test system is MCF7. The assay is described as follows: Induction of cell cycle arrest in estrogen receptor positive human MCF7 cells assessed as accumulation of cells at S phase at 15 uM incubated for 24 hrs (reference value: 20.84%). Format: functional.
The test system of assay [12] is MCF7. In words: Induction of cell cycle arrest in estrogen receptor positive human MCF7 cells assessed as accumulation of cells at G0/G1 phase at 15 uM incubated for 24 hrs (reference value: 60.49%). Format: functional.
In assay [13] the test system is MDA-MB-231. In words: Induction of cell cycle arrest in estrogen receptor negative human MDA-MB-231 cells assessed as accumulation of cells at G0/G1 phase at 9 uM incubated for 24 hrs (reference value: 61.44%). Format: functional.
Assay [14] relates to MDA-MB-231. The assay is described as follows: Induction of cell cycle arrest in estrogen receptor […] human MDA-MB-231 cells assessed as accumulation of cells at G2/M phase at 9 uM incubated for 24 hrs (reference value: 13.64%). Format: functional.
The subject of assay [15] is MCF7. In words: Induction of cell cycle arrest in estrogen receptor positive human MCF7 cells assessed as accumulation of cells at G2/M phase at 15 uM incubated for 24 hrs (reference value: 19.32%). Format: functional.
For assay [16], the system named is MDA-MB-231. In words: Induction of cell cycle arrest in estrogen receptor […] human MDA-MB-231 cells assessed as accumulation of cells at S phase at 9 uM incubated for 24 hrs (reference value: 25.49%). Format: functional.
Assay [17] concerns MDA-MB-231. In words: Induction of cell cycle arrest in estrogen receptor […] human MDA-MB-231 cells assessed as accumulation of cells at S phase at 8.8 uM incubated for 24 hrs (reference value: 25.49%). Format: functional.
The subject of assay [18] is MCF7. In words: Induction of cell cycle arrest in estrogen receptor positive human MCF7 cells assessed as accumulation of cells at S phase at 12.9 uM incubated for 24 hrs (reference value: 20.84%). Format: functional.
Assay [19] has as its system MDA-MB-231. In words: Induction of cell cycle arrest in estrogen receptor […] human MDA-MB-231 cells assessed as accumulation of cells at G2/M phase at 8.8 uM incubated for 24 hrs (reference value: 13.64%). Format: functional.
In assay [20] the test system is MCF7. The assay is described as follows: Induction of cell cycle arrest in estrogen receptor positive human MCF7 cells assessed as accumulation of cells at G0/G1 phase at 12.9 uM incubated for 24 hrs (reference value: 60.49%). Format: functional.
Assay [21] concerns MCF7. In words: Induction of cell cycle arrest in estrogen receptor positive human MCF7 cells assessed as accumulation of cells at G2/M phase at 12.9 uM incubated for 24 hrs (reference value: 19.32%). Format: functional.
Assay [22] relates to MDA-MB-231. In words: Induction of cell cycle arrest in estrogen receptor negative human MDA-MB-231 cells assessed as accumulation of cells at G0/G1 phase at 8.8 uM incubated for 24 hrs (reference value: 61.44%). Format: functional.
Assay [23] deals with MCF7. In words: Induction of cell cycle arrest in estrogen receptor positive human MCF7 cells assessed as accumulation of cells at G2/M phase at 11 uM incubated for 24 hrs (reference value: 19.32%). Format: functional.
The subject of assay [24] is MCF7. In words: Induction of cell cycle arrest in estrogen receptor positive human MCF7 cells assessed as accumulation of cells at S phase at 11 uM incubated for 24 hrs (reference value: 20.84%). Format: functional.
The test system of assay [25] is MCF7. In words: Induction of cell cycle arrest in estrogen receptor positive human MCF7 cells assessed as accumulation of cells at G0/G1 phase at 11uM incubated for 24 hrs (reference value: 60.49%). Format: functional.

For `COc1ccc2c(c1)OC(C)(C)C/C2=C(\c1ccccc1)c1ccccc1OCCN1CCCC1`, the IC50 with MCF7 [1] worked out at 19 µM; in the assay with MDA-MB-231 [2] it was 13 µM.
For `COc1ccc2c(c1)OC(C)(C)CC2C(c1ccccc1)c1ccccc1OCCN1CCCCC1` (stereo not given), the Activity in the assay with MDA-MB-231 [3] amounted to 74.38%; in the assay on MCF7 [4], 17.14%; in the assay with MCF7 [5] it was 11.86%; in the assay with MCF7 [6], 71.33%; in the assay with MDA-MB-231 [8] it was 12.12%; in the assay on MDA-MB-231 [9] it was 13.75%. For the same compound, the result in the assay with MDA-MB-231 [7] and in the assay with MCF7 [10] was Active. Further, the IC50 with MCF7 [1] came out at 13.4 µM; with MDA-MB-231 [2] it was 9.2 µM.
In the case of `COc1ccc2c(c1)OC(C)(C)C/C2=C(\c1ccccc1)c1ccccc1O`, the IC50 in the assay on MCF7 [1] was determined as 16 µM; in the assay with MDA-MB-231 [2], 12 µM.
As to `COc1ccc2c(c1)OC(C)(C)CC2C(c1ccccc1)c1ccc(OCCN2CCCC2)cc1` (stereo not given), the IC50 with MCF7 [1] is 13.3 µM; in the assay on MDA-MB-231 [2], 9.6 µM.
As for `COc1ccc2c(c1)OC(C)(C)CC2C(c1ccccc1)c1ccccc1OCC(C)N(C)C` (stereo not given), the IC50 with MCF7 [1] turned out to be 14 µM; with MDA-MB-231 [2] it was 11 µM.
Regarding `COc1ccc2c(c1)OC(C)(C)CC2C(c1ccccc1)c1ccc(O)cc1` (stereo not given), the IC50 in the assay with MCF7 [1] was 12.5 µM; with MDA-MB-231 [2] it was 9.5 µM.
The matching figures for `CCN(CC)CCOc1ccc(C(c2ccccc2)C2CC(C)(C)Oc3cc(OC)ccc32)cc1` (stereo not given): 15.4 µM and 11.5 µM.
The matching figures for `COc1ccc2c(c1)OC(C)(C)C/C2=C(/c1ccc(O)cc1)c1ccccc1F`: 22 µM and 17 µM.
The like results for `COc1ccc2c(c1)OC(C)(C)CC2C(c1ccccc1)c1ccc(OCCN2CCCCC2)cc1` (stereo not given) were, in that order, 13.3 µM and 8.5 µM.
`CCN(CC)CCOc1ccccc1C(c1ccccc1)C1CC(C)(C)Oc2cc(OC)ccc21` (stereo not given): the Activity in the assay with MCF7 [11] amounted to 18.9%; in the assay on MCF7 [12], 61.57%; in the assay with MDA-MB-231 [13] it was 75.26%; in the assay on MDA-MB-231 [14] it was 11.71%; with MCF7 [15], 20.33%; in the assay with MDA-MB-231 [16], 13.26%. Further, the outcome in the assay on MDA-MB-231 [7] and in the assay on MCF7 [10] was Active. In addition, the values for the IC50 in the assay on MCF7 [1] and with MDA-MB-231 [2] were 15 µM and 9 µM, respectively.
Turning to `CCN(CC)CCOc1ccccc1/C(=C1/CC(C)(C)Oc2cc(OC)ccc21)c1ccccc1`, the 50% inhibitory concentration (IC50) with MCF7 [1] was 15 µM; with MDA-MB-231 [2], 12 µM.
Regarding `COc1ccc2c(c1)OC(C)(C)CC2C(c1ccccc1)c1ccccc1OCCN1CCCC1` (stereo not given), the figures for the concentration for half-maximal inhibition (IC50) in the assay on MCF7 [1] and in the assay on MDA-MB-231 [2] were 25 µM and 20 µM, respectively.
As for `COc1ccc2c(c1)OC(C)(C)C/C2=C(\c1ccccc1)c1ccccc1OCCN(C)C`, the Activity with MDA-MB-231 [17] is 16.79%; in the assay with MCF7 [18], 17.85%; in the assay with MDA-MB-231 [19], 13.2%; in the assay with MCF7 [20], 63.58%; with MCF7 [21], 19.26%; in the assay with MDA-MB-231 [22], 70.51%. Besides, the result in the assay on MDA-MB-231 [7] and in the assay with MCF7 [10] was Active. Besides, the figures for the concentration for half-maximal inhibition (IC50) with MCF7 [1] and in the assay with MDA-MB-231 [2] were 12.9 µM and 8.8 µM, respectively.
On to `COc1ccc2c(c1)OC(C)(C)CC2C(c1ccccc1)c1ccc(OCC(C)N(C)C)cc1` (stereo not given), for which the 50% inhibitory concentration (IC50) in the assay with MCF7 [1] came to 15.2 µM; with MDA-MB-231 [2] it was 11.3 µM.
The matching figures for `COc1ccc2c(c1)OC(C)(C)CC2C(c1ccc(OCCN(C)C)cc1)c1ccccc1F` (stereo not given): 24 µM and 19 µM.
Turning to `COc1ccc2c(c1)OC(C)(C)CC2C(c1ccccc1)c1ccccc1OCCN(C)C` (stereo not given), the figures for the IC50 in the assay on MCF7 [1] and in the assay on MDA-MB-231 [2] were 13.5 µM and 8.5 µM, respectively.
The matching figures for `COc1ccc2c(c1)OC(C)(C)C/C2=C(\c1ccccc1)c1ccc(O)cc1`: 12.5 µM and 9.5 µM.
For `COc1ccc2c(c1)OC(C)(C)CC2C(c1ccccc1)c1ccc(OCCN(C)C)cc1` (stereo not given), the result in the assay on MCF7 [1] and in the assay on MDA-MB-231 [2] was inactive.
Take `COc1ccc2c(c1)OC(C)(C)CC2C(c1ccccc1)c1ccccc1O` (stereo not given): the IC50 in the assay with MCF7 [1] came to 13.6 µM; in the assay on MDA-MB-231 [2], 10.4 µM.
For the compound `CC/C(=C(\c1ccccc1)c1ccc(OCCN(C)C)cc1)c1ccccc1` [TAMOXIFEN], the IC50 in the assay on MDA-MB-231 [2] amounted to 9.96 µM.
In the case of `COc1ccc2c(c1)OC(C)(C)C/C2=C(\c1ccccc1)c1ccccc1OCCN1CCCCC1`, the half-inhibitory concentration (IC50) turned out to be 16 µM in the assay on MCF7 [1] and 12 µM in the assay with MDA-MB-231 [2].
On to `COc1ccc2c(c1)OC(C)(C)C/C2=C(\c1ccccc1)c1ccccc1OCC(C)N(C)C` (stereo not given), for which the Activity is 66.73% in the assay with MDA-MB-231 [13]; 12.94% in the assay with MDA-MB-231 [14]; 21.11% in the assay on MDA-MB-231 [16]; 22.64% in the assay on MCF7 [23]; 20% in the assay with MCF7 [24]; 58.31% in the assay with MCF7 [25]. Further, the result in the assay on MDA-MB-231 [7] and in the assay with MCF7 [10] was Active. Moreover, the IC50 in the assay on MCF7 [1] stood at 11 µM; in the assay on MDA-MB-231 [2], 9 µM.

One may read the IC50 as the midpoint of a concentration-inhibition curve.

Source of the values: ChEMBL document CHEMBL5576051, “Synthesis of 2,2-dimethyl-chroman-based stereochemically flexible and constrained anti-breast cancer agents” (Bioorg Med Chem Lett, 2024).
